Data from patent US9274116B2, “Drug selection for breast cancer therapy using antibody-based arrays” (NESTEC S.A., priority 2008, dated 2016).

Tests used:
Erk = assay: Tumor cell pathway profile: Erk; type: in vivo, human; conditions: tumor cells on re-biopsy
Method: (§1) The incubation was for 2 hours at room temperature. • 5) Alternatively, the detection step utilized a biotin-conjugate of the monoclonal antibody recognizing phosphorylated EGFR. In these instances, after six washes an additional sequential step of incubation with streptavidin-HRP for 1 hour was included. • 6) Alternatively, the detection step utilized an oligonucleotide-mediated glucose oxidase (GO) conjugate of the anti-EGFR antibody.
(§2) In brief, the activation levels of different components of the ErbB and nuclear hormone receptor pathways in CTCs or biopsy-derived cancer cells can be determined in the presence or absence of different combinations of test therapeutic agents.

breast tumor = assay: Response of breast cancer patient to therapy selected from pathway profile; type: in vivo, human
Text: (§3) The exemplary patient profiles shown below in Tables 4-22 illustrate how an analysis of the pathways active in circulating tumor cells (CTCs) from blood or cancer cells obtained from a needle biopsy can be used to help physicians decide upon an effective course of treatment for a breast tumor, e.g., neoadjuvant treatment prior to surgery to reduce the size of the breast tumor or treatment in patients with locally recurrent or metastatic breast cancer. In brief, the activation levels of different components of the ErbB and nuclear hormone receptor pathways in CTCs or biopsy-derived cancer cells can be determined in the presence or absence of different combinations of test therapeutic agents.
In brief, the activation levels of different components of signal transduction pathways such as the ErbB receptor pathways in CTCs or biopsy-derived cancer cells can be determined in the presence or absence of different combinations of test therapeutic agents.

Shc = assay: Tumor cell pathway profile: Shc; type: in vivo, human; conditions: tumor cells on re-biopsy
Method: as §1, §3

ER:AIB1 Complex = target: T1, ER:AIB1 Complex (Homo sapiens, UniProt P03372); assay: Tumor cell pathway profile: ER:AIB1 complex; type: in vivo; conditions: Patient 4008 (High AIB1; ER+/PR+/ErbB2−), tumor cells on re-biopsy
T1 construct: pathways active in circulating tumor cells (CTCs) from blood or cancer cells obtained from a needle biopsy; endogenous in cells; host or cells: patient's circulating tumour cells or biopsy-derived breast cancer cells
T1 sequence (P03372 whole entry, one chain of several): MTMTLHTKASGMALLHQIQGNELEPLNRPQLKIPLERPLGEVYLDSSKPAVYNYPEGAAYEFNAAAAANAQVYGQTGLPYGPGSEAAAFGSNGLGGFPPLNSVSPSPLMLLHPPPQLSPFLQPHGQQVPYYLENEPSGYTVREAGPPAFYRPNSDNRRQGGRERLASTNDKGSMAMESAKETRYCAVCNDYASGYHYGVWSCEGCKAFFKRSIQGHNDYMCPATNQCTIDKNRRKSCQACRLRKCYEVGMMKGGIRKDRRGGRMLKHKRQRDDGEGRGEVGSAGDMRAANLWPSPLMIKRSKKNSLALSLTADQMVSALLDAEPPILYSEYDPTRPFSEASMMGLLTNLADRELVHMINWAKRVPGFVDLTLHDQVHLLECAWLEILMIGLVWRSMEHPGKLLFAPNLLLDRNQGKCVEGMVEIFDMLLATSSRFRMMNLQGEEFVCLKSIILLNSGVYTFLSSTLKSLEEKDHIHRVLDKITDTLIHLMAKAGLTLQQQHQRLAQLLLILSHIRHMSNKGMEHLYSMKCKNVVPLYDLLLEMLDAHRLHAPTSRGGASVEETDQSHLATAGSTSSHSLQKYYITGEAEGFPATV
Method: as §1, §2

ER:N-CoR Complex = target: T2, ER:N-CoR Complex (Homo sapiens, UniProt P03372); assay: Tumor cell pathway profile: ER:N-CoR complex; type: in vivo; conditions: Patient 4008 (High AIB1; ER+/PR+/ErbB2−), tumor cells on re-biopsy
T2 construct: pathways active in circulating tumor cells (CTCs) from blood or cancer cells obtained from a needle biopsy; endogenous in cells; host or cells: patient's circulating tumour cells or biopsy-derived breast cancer cells
Method: as §1, §2

PI3K = assay: Tumor cell pathway profile: PI3K; type: in vivo, human; conditions: tumor cells on re-biopsy
Method: as §1, §2

ErbB2 = target: T3, ErbB2 (Homo sapiens, UniProt P04626); assay: Tumor cell pathway profile: ErbB2; type: in vivo; conditions: tumor cells on re-biopsy
T3 construct: pathways active in circulating tumor cells (CTCs) from blood or cancer cells obtained from a needle biopsy; endogenous in cells; host or cells: patient's circulating tumour cells or biopsy-derived breast cancer cells
T3 sequence (P04626 23-1255): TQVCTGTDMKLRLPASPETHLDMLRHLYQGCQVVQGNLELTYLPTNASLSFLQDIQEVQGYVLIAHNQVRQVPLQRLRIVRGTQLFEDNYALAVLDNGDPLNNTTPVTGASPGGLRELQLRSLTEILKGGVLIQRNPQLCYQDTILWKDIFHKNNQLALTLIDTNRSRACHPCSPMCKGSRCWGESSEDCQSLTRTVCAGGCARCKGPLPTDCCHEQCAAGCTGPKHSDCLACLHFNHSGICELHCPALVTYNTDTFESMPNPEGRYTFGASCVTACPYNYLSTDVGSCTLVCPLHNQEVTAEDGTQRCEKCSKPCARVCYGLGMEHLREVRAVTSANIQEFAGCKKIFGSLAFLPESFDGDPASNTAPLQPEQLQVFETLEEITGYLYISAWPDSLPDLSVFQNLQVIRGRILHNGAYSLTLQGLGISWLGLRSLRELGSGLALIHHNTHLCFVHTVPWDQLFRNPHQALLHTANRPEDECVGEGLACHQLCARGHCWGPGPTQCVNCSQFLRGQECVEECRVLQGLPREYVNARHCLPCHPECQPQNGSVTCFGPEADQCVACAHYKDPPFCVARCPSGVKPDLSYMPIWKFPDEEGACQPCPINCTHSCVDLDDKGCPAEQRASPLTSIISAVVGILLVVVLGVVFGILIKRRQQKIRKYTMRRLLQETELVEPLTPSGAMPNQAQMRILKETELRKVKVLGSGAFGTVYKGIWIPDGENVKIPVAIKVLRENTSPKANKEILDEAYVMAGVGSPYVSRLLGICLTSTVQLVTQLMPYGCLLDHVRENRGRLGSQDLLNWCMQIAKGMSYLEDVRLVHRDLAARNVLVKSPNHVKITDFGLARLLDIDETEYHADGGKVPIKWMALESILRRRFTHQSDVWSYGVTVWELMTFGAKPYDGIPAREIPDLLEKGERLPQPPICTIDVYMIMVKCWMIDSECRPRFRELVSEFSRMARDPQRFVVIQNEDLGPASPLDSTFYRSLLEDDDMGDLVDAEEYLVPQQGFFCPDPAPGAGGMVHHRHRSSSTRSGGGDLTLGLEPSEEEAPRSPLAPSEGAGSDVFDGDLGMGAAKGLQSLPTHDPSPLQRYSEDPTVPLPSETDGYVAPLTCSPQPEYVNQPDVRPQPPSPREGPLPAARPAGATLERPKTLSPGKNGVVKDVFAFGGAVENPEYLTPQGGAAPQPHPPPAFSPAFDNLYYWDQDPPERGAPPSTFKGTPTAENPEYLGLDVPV
Method: as §1, §2

Ki67 = assay: Tumor cell pathway profile: Ki67; type: in vivo, human; conditions: tumor cells on re-biopsy
Method: as §1, §3

ErbB4 = target: T4, ErbB4 (Homo sapiens, UniProt Q15303); assay: Tumor cell pathway profile: ErbB4; type: in vivo; conditions: tumor cells on re-biopsy
T4 construct: pathways active in circulating tumor cells (CTCs) from blood or cancer cells obtained from a needle biopsy; endogenous in cells; host or cells: patient's circulating tumour cells or biopsy-derived breast cancer cells
T4 sequence (Q15303 26-1308): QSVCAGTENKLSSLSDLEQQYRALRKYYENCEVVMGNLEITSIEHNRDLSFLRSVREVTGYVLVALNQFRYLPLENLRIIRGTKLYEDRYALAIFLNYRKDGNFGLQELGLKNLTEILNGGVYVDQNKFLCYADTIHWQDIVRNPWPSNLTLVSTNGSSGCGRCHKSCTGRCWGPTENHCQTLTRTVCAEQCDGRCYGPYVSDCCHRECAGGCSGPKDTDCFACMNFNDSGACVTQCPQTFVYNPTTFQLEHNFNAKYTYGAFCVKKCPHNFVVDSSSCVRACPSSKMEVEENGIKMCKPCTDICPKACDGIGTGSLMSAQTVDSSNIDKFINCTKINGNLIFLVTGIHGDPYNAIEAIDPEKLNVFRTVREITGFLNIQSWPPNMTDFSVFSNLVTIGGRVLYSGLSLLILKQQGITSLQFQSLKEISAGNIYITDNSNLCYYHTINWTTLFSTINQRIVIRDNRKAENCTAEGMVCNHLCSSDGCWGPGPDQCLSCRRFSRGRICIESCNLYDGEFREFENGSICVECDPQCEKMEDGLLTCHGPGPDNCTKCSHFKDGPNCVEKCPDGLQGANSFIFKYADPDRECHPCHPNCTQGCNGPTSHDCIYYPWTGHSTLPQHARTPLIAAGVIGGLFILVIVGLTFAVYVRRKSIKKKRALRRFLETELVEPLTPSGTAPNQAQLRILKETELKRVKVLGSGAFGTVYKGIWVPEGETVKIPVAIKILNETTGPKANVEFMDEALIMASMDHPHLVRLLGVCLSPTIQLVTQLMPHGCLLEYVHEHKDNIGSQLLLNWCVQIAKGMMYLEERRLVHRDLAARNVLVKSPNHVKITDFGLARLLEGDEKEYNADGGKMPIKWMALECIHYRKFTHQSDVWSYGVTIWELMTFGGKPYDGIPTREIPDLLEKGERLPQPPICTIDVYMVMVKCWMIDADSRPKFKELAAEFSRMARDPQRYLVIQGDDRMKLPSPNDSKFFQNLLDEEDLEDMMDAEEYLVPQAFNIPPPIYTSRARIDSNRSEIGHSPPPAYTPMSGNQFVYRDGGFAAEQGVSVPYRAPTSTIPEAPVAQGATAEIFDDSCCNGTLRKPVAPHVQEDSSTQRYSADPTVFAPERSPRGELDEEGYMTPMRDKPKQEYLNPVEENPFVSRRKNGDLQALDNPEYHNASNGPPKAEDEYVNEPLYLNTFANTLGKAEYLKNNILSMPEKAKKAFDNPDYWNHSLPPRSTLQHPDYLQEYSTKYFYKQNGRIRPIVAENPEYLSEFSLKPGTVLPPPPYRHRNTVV
Method: as §1, §2

ER = target: T5, ER (Homo sapiens, UniProt P03372); assay: Tumor cell (CTC/biopsy) pathway profile on antibody array: ER expression; type: in vivo; conditions: Patient 4008 (High AIB1; ER+/PR+/ErbB2−), tumor cells on re-biopsy
T5 construct: pathways active in circulating tumor cells (CTCs) from blood or cancer cells obtained from a needle biopsy; endogenous in cells; host or cells: patient's circulating tumour cells or biopsy-derived breast cancer cells
T5 sequence (P03372 whole entry): as the sequence (P03372 whole entry, one chain of several) above
Method: as §1, §2

ErbB1 = target: T6, ErbB1 (Homo sapiens, UniProt P00533); assay: Tumor cell pathway profile: ErbB1; type: in vivo; conditions: Patient 4008 (High AIB1; ER+/PR+/ErbB2−), tumor cells on re-biopsy
T6 construct: pathways active in circulating tumor cells (CTCs) from blood or cancer cells obtained from a needle biopsy; endogenous in cells; host or cells: patient's circulating tumour cells or biopsy-derived breast cancer cells
Method: as §1, §2

Rsk = assay: Tumor cell pathway profile: Rsk; type: in vivo, human; conditions: tumor cells on re-biopsy
Method: as §1, §2

ErbB3 = assay: Tumor cell pathway profile: ErbB3; type: in vivo, human; conditions: tumor cells on re-biopsy
Method: as §1, §3

ER (Ser 167) = target: T7, ER (Ser 167) (Homo sapiens, UniProt P03372); assay: Tumor cell pathway profile: ER (Ser 167) phosphorylation; type: in vivo; conditions: Patient 4008 (High AIB1; ER+/PR+/ErbB2−), tumor cells on re-biopsy
T7 construct: pathways active in circulating tumor cells (CTCs) from blood or cancer cells obtained from a needle biopsy; endogenous in cells; host or cells: patient's circulating tumour cells or biopsy-derived breast cancer cells
T7 sequence (P03372 whole entry): as the sequence (P03372 whole entry, one chain of several) above
Method: as §1, §2

Akt = assay: Tumor cell pathway profile: Akt; type: in vivo, human; conditions: tumor cells on re-biopsy
Method: as §1, §2

IGF-1R = assay: Tumor cell pathway profile: IGF-1R; type: in vivo, human; conditions: tumor cells on re-biopsy
Method: as §1, §2

Progesterone Receptor = assay: Tumor cell pathway profile: Progesterone Receptor; type: in vivo, human; conditions: tumor cells on re-biopsy
Method: as §1, §3

P70S6K = assay: Tumor cell pathway profile: P70S6K; type: in vivo, human; conditions: tumor cells on re-biopsy
Method: as §1, §2

ER (Ser 118) = target: T8, ER (Ser 118) (Homo sapiens, UniProt P03372); assay: Tumor cell pathway profile: ER (Ser 118) phosphorylation; type: in vivo; conditions: Patient 4008 (High AIB1; ER+/PR+/ErbB2−), tumor cells on re-biopsy
T8 construct: pathways active in circulating tumor cells (CTCs) from blood or cancer cells obtained from a needle biopsy; endogenous in cells; host or cells: patient's circulating tumour cells or biopsy-derived breast cancer cells
T8 sequence (P03372 whole entry): as the sequence (P03372 whole entry, one chain of several) above
Method: as §1, §2

PTEN = assay: Tumor cell pathway profile: PTEN; type: in vivo, human; conditions: Patient 4001 (ER+/PR+/ErbB2−), tumor cells on re-biopsy
Method: as §1, §3

TOPO II = assay: Tumor cell pathway profile: TOPO II; type: in vivo, human; conditions: Patient 4001 (ER+/PR+/ErbB2−), tumor cells on re-biopsy
Method: as §1, §3

pHER-2 = assay: Multiplexed proximity assay, per-cell RTK activation in cell lines: pHER-2; type: cell-based; conditions: for Per Cell-RTK Activation (RFU/cell) pHER2: stimulation with the ligand, calculated from number of cells required to detect EC20 (12000 RFU)
Method: SKBR3, MDA-MB-468, T47D, and BT474 cell lines were obtained from ATCC. Cells were grown in the following growth media in 100 mm tissue culture plates at 37° C. in 5% CO2: SKBR3—MacCoy's 5A medium with 10% FBS; MDA-MB-468—DMEM, 10% FBS; BT474—DMEM, 10% FBS; T47D—RPMI 1640, 10% FBS, 0.2 U/ml bovine insulin. Cells were harvested at 70-80% confluency with gentle detachment process (trypsin treatment+subsequent inactivation) and were subsequently counted and washed with 1×PBS. […] Subsequently, stimulated cells were washed with 1×PBS and then were lysed and kept on ice for 30 min.
Capture antibodies were diluted in 1×PBS with detergent. A contact microarray printer (Genetix) was utilized to print on 16 pad nitrocellulose FAST slides (Whatman). The spot diameter was approximately 175 μm and printed slides were kept in a desiccated chamber at 4° C.
Slides were incubated with blocking buffer for 1 hr and then washed 3× with TBST buffer. Cell lysates were then added onto each pad for overnight incubation at room temperature (RT). Upon the completion of the primary binding, lysates were aspirated and then each pad was washed several times with TBST. Then, secondary detector antibodies (conjugated with GO or HRP) were added to each pad for 2 hr at RT. Unbound secondary detector antibodies were removed by washing with TBST, and signal amplification buffer containing glucose and biotinylated tyramide was added to each pad for 15 min. After removing excess biotinylated tyramide, Alexa-647 conjugated strepavidin was added for the signal detection.
Quantitation was performed using Perkin Elmer ScanArray Express software and the data obtained was corrected for local and global background intensities. A GenePixArray List (GAL) file was used to provide descriptive name and identifier information and was incorporated into the image analysis output file. Signals from triplicate spots were averaged and data were normalized to correct for pad to pad variability. A nonlinear regression model was used for the quantitation of cell-equivalent amount for corresponding relative fluorescence unit (RFU) values. The data were fit to a five parameter Hill equation to generate the standard curves. Each curve was validated against known controls. A known number of cells was predicted for the appropriate dilution, corresponding to the curve with the highest slope at the intensity of the unknown sample.
Analytical specificity of the collaborative immunoassay format described herein was >99.99% based on a comparative study performed on multiple cell lines with various RTK levels. […] The RTK activation profile for T47D cells, which express some level of ErbB2 and ErbB3 but an extremely low amount of ErbB1, is shown in FIG. 22. The number of cells required to detect EC20 (12000 RFU) pHER-1 or pHER-2 were used to calculate per-cell RTK activation (RFU/cell) as shown in Table 43. When MB468 cells expressing an extremely low amount of HER-2 were used, having ˜1000 cells per reaction pad was not sufficient to achieve EC20, and this type of low or non-detectable signal in other cell lines was indicated as “ND” in Table 43. […] This collaborative immunoassay format ensures ultra-specificity while maintaining its sub-single cell level (10^4 to 10^5) molecular level assay sensitivity.

pHER-1 = target: T9, pHER-1 (Homo sapiens, UniProt P00533); assay: Multiplexed proximity assay, per-cell RTK activation in cell lines: pHER-1; type: cell-based; conditions: stimulation with the ligand, calculated from number of cells required to detect EC20 (12000 RFU)
T9 construct: host or cells: SKBR3, MDA-MB-468, T47D, BT474
Method: Slides were incubated with blocking buffer for 1 hr and then washed 3× with TBST buffer. Cell lysates were then added onto each pad for overnight incubation at room temperature (RT). Upon the completion of the primary binding, lysates were aspirated and then each pad was washed several times with TBST. Then, secondary detector antibodies (conjugated with GO or HRP) were added to each pad for 2 hr at RT. […]
Quantitation was performed using Perkin Elmer ScanArray Express software and the data obtained was corrected for local and global background intensities. […] A nonlinear regression model was used for the quantitation of cell-equivalent amount for corresponding relative fluorescence unit (RFU) values. […]

p95ErbB2 = conditions: T47D cells, FIG. 17
Method: The slide is incubated for two hours at room temperature. • 4) After six washes with TBS-Tween, 80 μl of detection antibodies for the proximity assay diluted in TBS-Tween/2% BSA/1% FBS is added to the slides. The detection antibodies used are: (1) an anti-ErbB2 antibody specific for the intracellular domain of ErbB2 that is directly conjugated to glucose oxidase (GO); and (2) a monoclonal antibody recognizing phosphorylated ErbB2 that is directly conjugated to horseradish peroxidase (HRP). The incubation is for 2 hours at room temperature. • 5) For signal amplification, 80 μl of biotin-tyramide at 5 μg/ml is added and reacted for 15 minutes along with 50 mM glucose. The slide is washed six times with TBS-Tween, twice with 20% DMSO/TBS-Tween, and once with TBS. […] The slide is then washed twice, dried for 5 minutes, and scanned on a microarray scanner (Perkin-Elmer, Inc.). • 6) As a non-limiting example, slide 1 can report on total ErbB2 activation while slide 2 can report on truncated ErbB2 activation.
The slide is incubated for two hours at room temperature. • 4) After six washes with TBS-Tween, 80 μl of detection antibodies for the assay diluted in TBS-Tween/2% BSA/1% FBS is added to the slides. The detection antibody used is an anti-ErbB2 antibody specific for the intracellular domain of ErbB2 that is directly conjugated to HRP. […]

[1] = Patient 4008 (High AIB1; ER+/PR+/ErbB2−)

C[C@]12CC[C@@H]3c4ccc(O)cc4C[C@@H](CCCCCCCCC[S+]([O-])CCCC(F)(F)C(F)(F)F)[C@H]3[C@@H]1CC[C@@H]2O (some centres unmarked) [Fulvestrant, fulvestrant]
Erk: Treatment with Fulvestrant (Erk; [1]): Weak
Patient response to treatment (breast tumor; [1]): responded
Shc: Treatment with Fulvestrant (Shc; [1]): Weak
ER: AIB1 Complex: Treatment with Fulvestrant (ER:AIB1 Complex): Weak
ER: N-CoR Complex: Treatment with Fulvestrant (ER:N-CoR Complex): Weak
PI3K: Treatment with Fulvestrant (PI3K; [1]): Weak
ErbB2: Treatment with Fulvestrant (ErbB2; [1]): Weak
Ki67: Treatment with Fulvestrant (Ki67; [1]): Weak
ErbB4: Treatment with Fulvestrant (ErbB4; [1]): Weak
ER: Treatment with Fulvestrant (ER): Low
ErbB1: Treatment with Fulvestrant (ErbB1): Weak
Rsk: Treatment with Fulvestrant (Rsk; [1]): Weak
ErbB3: Treatment with Fulvestrant (ErbB3; [1]): Weak
ER (Ser 167): Treatment with Fulvestrant (ER (Ser 167)): Weak
Akt: Treatment with Fulvestrant (Akt; [1]): Weak
IGF-1R: Treatment with Fulvestrant (IGF-1R; [1]): Weak
Progesterone Receptor: Treatment with Fulvestrant (Progesterone Receptor; [1]): Low
P70S6K: Treatment with Fulvestrant (P70S6K; [1]): Weak
ER (Ser 118): Treatment with Fulvestrant (ER (Ser 118)): Weak

CC/C(=C(\c1ccccc1)c1ccc(OCCN(C)C)cc1)c1ccccc1 [Tamoxifen, tamoxifen]
Erk: Treatment with Tamoxifen (Erk; Patient 4001 (ER+/PR+/ErbB2−)): Weak
Patient response to treatment (breast tumor; Patient 4001 (ER+/PR+/ErbB2−), premenopausal, node negative): responded
Shc: Treatment with Tamoxifen (Shc; Patient 4001 (ER+/PR+/ErbB2−)): Weak
PTEN: Treatment with Tamoxifen (PTEN): Medium
PI3K: Treatment with Tamoxifen (PI3K; Patient 4001 (ER+/PR+/ErbB2−)): Weak
ErbB2: Treatment with Tamoxifen (ErbB2; Patient 4001 (ER+/PR+/ErbB2−)): Weak
Ki67: Treatment with Tamoxifen (Ki67; Patient 4001 (ER+/PR+/ErbB2−)): Weak
ErbB4: Treatment with Tamoxifen (ErbB4; Patient 4001 (ER+/PR+/ErbB2−)): Weak
TOPO II: Treatment with Tamoxifen (TOPO II): Medium
Rsk: Treatment with Tamoxifen (Rsk; Patient 4001 (ER+/PR+/ErbB2−)): Weak
ErbB3: Treatment with Tamoxifen (ErbB3; Patient 4001 (ER+/PR+/ErbB2−)): Weak
Akt: Treatment with Tamoxifen (Akt; Patient 4001 (ER+/PR+/ErbB2−)): Weak
IGF-1R: Treatment with Tamoxifen (IGF-1R; Patient 4001 (ER+/PR+/ErbB2−)): Weak
Progesterone Receptor: Treatment with Tamoxifen (Progesterone Receptor; Patient 4001 (ER+/PR+/ErbB2−)): Medium
P70S6K: Treatment with Tamoxifen (P70S6K; Patient 4001 (ER+/PR+/ErbB2−)): Weak

EGF: epidermal growth factor, stimulatory growth factor
Per Cell-RTK Activation (RFU/cell) pHER2 (pHER-2; BT 474 cells): 1200 RFU/cell
pHER-2 (pHER-2; MDA MB 468 cells stimulated with EGF): do not show any detectable
Per Cell-RTK Activation (RFU/cell) pHER2 (pHER-2; SKBR3 cells): 1334 RFU/cell
Per Cell-RTK Activation (RFU/cell) pHER2 (pHER-2; T47D cells): 80 RFU/cell

heregulin
Per Cell-RTK Activation (RFU/cell) pHER1 (pHER-1; MD AMB 468 cells): 4000 RFU/cell
Per Cell-RTK Activation (RFU/cell) pHER1 (pHER-1; SKBR3 cells): 105 RFU/cell
p95ErbB2 phosphorylation (p95ErbB2): increased
Per Cell-RTK Activation (RFU/cell) pHER2 (pHER-2; BT 474 cells): 1200 RFU/cell
Per Cell-RTK Activation (RFU/cell) pHER2 (pHER-2; SKBR3 cells): 353 RFU/cell
Per Cell-RTK Activation (RFU/cell) pHER2 (pHER-2; T47D cells): 165 RFU/cell
